# Measured values as given in patent US11723910B1, “Compositions and methods for modulating the endothelial barrier” (University of South Florida, priority 2019, dated 2023).
# Experiments:
# HUVEC = assay: Seahorse glycolytic rate assay in HUVEC; format: cell-based, human; conditions: Afobazole 300 μM 3 hours prior to the assay vs vehicle
# Method: FIGS. 2A and 2B show glycolytic PER (glycoPER) and oxygen consumption rate (OCR) obtained from glycolytic rate assay of cells treated with 100 μM PRE-084 or vehicle for 3 hours. […] FIGS. 2D-2H show assay parameters obtained from the glycolytic rate assay. FIGS. 2I-2K show assay parameters from ATP rate assay. *P<0.05.
# (§1) HUVEC and media were obtained from LifeLine cell technology, PRE-084 from Tocris Biotechne, and CCCP from Abcam. TER was determined with an Electrical Cell-Substrate Impedance Sensor (ECIS; Applied Biophysics). For transfection, 200 nM σ1 siRNA (SEQ ID NO: 2: GGCUUGAGCUCACCACCUA) or control non-targeting RNA (SEQ ID NO: 3: UGGUUUACAUGUUUUCCUA) purchased from Dharmacon was introduced with the Nucleofector II device (Lonza). Cell culture procedures, TER recordings, and protein isolation and transfection protocols have been previously described. Western blotting was done using WES (Protein Simple). Rabbit anti σ1 was purchased from Novus Biologicals NBP1-82479 and mouse anti (β-actin was from cell signaling #3700. Both primaries were used at 1:50 dilution. Seahorse xfp analyzer was used for glycolytic rate and ATP rate with assay kits (Agilent) according to manufacturer's instructions using 40.000 cells/well. Calculation of assay parameters was done using Wave software with its built-in report generators and statistical analysis was done using Prism 7.
# [1] = test system: HUVEC monolayers treated with CCCP; assay: CCCP-induced barrier disruption (TER) in HUVEC; format: cell-based, human; conditions: 10 μM CCCP
# Method: (§2) Because ATP depletion has been reported to disrupt the endothelial barrier (Unno N, et al. (1996) Hyperpermeability and ATP depletion induced by chronic hypoxia or glycolytic inhibition in Caco-2BBe monolayers. Am J Physiol 270(6 Pt 1):G1010-1021), assessment was performed to determine whether carbonyl cyanide m-chlorophenyl hydrazine (CCCP) induced mitochondrial insult causes barrier disruption and whether the barrier-enhancing properties of PRE-084 can counteract this effect. […] To further validate the contribution of σ1 to endothelial barrier function, siRNA was used to selectively reduce σ1 expression in HUVEC.
# (§3) HUVEC and media were obtained from LifeLine cell technology, PRE-084 from Tocris Biotechne, and CCCP from Abcam. TER was determined with an Electrical Cell-Substrate Impedance Sensor (ECIS; Applied Biophysics). For transfection, 200 nM σ1 siRNA (SEQ ID NO: 2: […]) or control non-targeting RNA (SEQ ID NO: 3: […]) purchased from Dharmacon was introduced with the Nucleofector II device (Lonza). Cell culture procedures, TER recordings, and protein isolation and transfection protocols have been previously described. Western blotting was done using WES (Protein Simple). […]
# sigma-1 receptor (σ1) = assay: Western blot of σ1 expression after siRNA knockdown in HUVEC; format: cell-based, human; conditions: 200 nM σ1 siRNA
# Method: as §2, §3
# [2] = test system: human umbilical vein endothelial cell (HUVEC) monolayers; assay: Transendothelial electrical resistance (TER, ECIS) of HUVEC monolayers; format: cell-based; conditions: mean TER at 70 h vs non-targeting RNA
# Method: as §1
compound,measurement,setting,value
CCOc1ccc2nc(SCCN3CCOCC3)[nH]c2c1 [Afobazole],glycolytic proton efflux rate,HUVEC,enhances
same,oxygen consumption rate,HUVEC,lowers
carbonyl cyanide m-chlorophenyl hydrazine [CCCP],transendothelial electrical resistance (TER) after CCCP,[1],significantly lowered
"σ1 siRNA: σ1 siRNA (SEQ ID NO: 2: GGCUUGAGCUCACCACCUA) purchased from Dharmacon (listed as RNA, chemistry not given here)",decrease in σ1 protein compared to controls,sigma-1 receptor (σ1); 48-h post-transfection,47%
same,decrease in σ1 protein compared to controls,sigma-1 receptor (σ1); 70-h post-transfection,74%
same,TER in σ1 siRNA-treated cells compared to control,[2],significant decreases
